Read-outs that look alike come from different tables or passages of the source.
What was measured:
[1] = target: T1, pDNA-PK ser2056 induction in HCT116 spheroids (Homo sapiens, UniProt P78527); assay: Multicellular tumour spheroid + radiation, pDNA-PK inhibition, HCT116; assay type: cell-based; details: 20 Gy
T1 construct: endogenous in cells; host or cells: HCT116 multicellular tumour spheroids
Procedure, shortened: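 HCT116 spheroids (~0.5 mm) in MEM/10% FBS/10 mM glucose, 20% O2, 37 °C, pre-incubated 1 h with compound (10 or 5 μM down to 3.5 nM), irradiated 20 Gy, incubated 2 h more. Cryosections immunostained for pDNA-PK ser2056; EC50 (μM) for 50% reduction of radiation-induced pDNA-PK.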

[2] = target: T2, pDNA-PK ser2056 induction in FaDU spheroids (Homo sapiens, UniProt P78527); assay: Multicellular tumour spheroid + radiation, pDNA-PK inhibition, FaDU; assay type: cell-based; details: 20 Gy
T2 construct: host or cells: FaDu
Protocol: (§1) Multicellular tumour spheroids determination of compound inhibition of pDNA-PK induction following radiation. Tumour spheroids were grown to approximately 0.5 mm in diameter and irradiated with 20 Gy in combination with inhibitor test compounds to determine their potency. Inhibitor concentration for 50% reduction in pDNA-PK induction (IC50) was determined via immunohistochemical staining in spheroid cryosections taken 2 hours following radiation. For cell survival endpoint 8 Gy radiation was used and 3 hours following radiation spheroids were dissociated, counted and plated for colony forming endpoint.
Spheroid+radiation pDNA-PK. Radiation: 20 Gy. Drug: serial dilution 5 or 10 μM down to 3.5 nM (11 wells). Spheroids: 3-6 spheroids per well (300-500 μm diameter). 20% O2 and 5% CO2. 96 well plate format. Endpoint: fluorescent immunostain pDNA-PK ser2056 and image on microscope. Analysis: determine EC50 concentrations that decreases pDNA-PK induction […] after irradiation.
(§2) Multicellular tumour spheroids were used to determine potency of test compounds in a 3D tissue environment using inhibition of pDNA-PK induction following radiation or cell survival as the endpoint. For the pDNA-PK endpoint HCT116 or FaDU tumour spheroids were grown to approximately 0.5 mm in diameter and irradiated with 20 Gy in combination with inhibitor test compounds to determine their potency. Experiments were carried out in 96 well plates containing 0.7 mls of MEM media containing 10% FBS and 10 mM glucose under 20% O2 & 5% CO2 at 37° C. Following dilution of compounds 1:1000 from DMSO stocks, compounds were serially diluted from 10 μM down to 3.5 nM and 5-10 spheroids added. 96 well plates were constantly stirred to avoid spheroids settling during the course of the experiment. The inhibitor concentration for 50% reduction in pDNA-PK induction (EC50) was determined via immunohistochemical staining in spheroid cryosections taken 2 hours following radiation using anti-pDNA-PK (ser 2056) and fixed immediately in formalin following sectioning. For cell survival endpoint 8 Gy radiation was used and, 3 hours following radiation, spheroids were dissociated, counted and plated for colony forming endpoint. Data presented in the table compound potency as EC50 [μM].

HCT116 spheroids = assay: Spheroid + radiation colony forming cell survival assay (SF), HCT116; assay type: cell-based; details: 8 Gy
Protocol: as §1
Spheroid+radiation colony forming cell survival assay (SF). Radiation 8 Gy. Drug: serial dilution 5 μM down to 10 nM (12 wells×2 repeat). Spheroids: 5-10 spheroids per well ([…]). HCT116. 5% O2 and 5% CO2. 96 well pate format for assay. Protocol: pre incubate 1 hour with drug, irradiate 8 Gy, post incubate 3 hrs with drug, dissociate spheroids and count cells and plate for colony forming assay. Endpoint: wait 4-7 days and count colonies. Analysis: determine EC50 concentration that increase cell kill by 50% over radiation alone.
as §2

[3] = Microsomal stability assay, mouse liver microsomes; details: for microsomal CLint at 0.1 uM: male, CD-1, mouse, liver microsomes, pH 7.4, Microsomal Stability Mouse Clint, 0.1 mg/mL microsomes, 0.1 uM compound
[4] = Microsomal stability assay, human liver microsomes; assay type: in vitro ADME; details: for microsomal CLint at 0.1 uM: both sexes, human, liver microsomes, pH 7.4, 0.1 mg/mL microsomes, 0.1 uM compound
Protocol: Samples were then mixed and centrifuged. Supernatants were used for HPLC-MS/MS analysis. […] Peak areas corresponding to the test compound were recorded.

[5] = Hepatocyte stability assay, mouse hepatocytes; assay type: in vitro ADME; details: for hepatocyte CLint at 1 uM: male, CD-1, mouse, cryopreserved hepatocytes, pH 7.3, 0.7 million cells per mL, 1 uM compound
Procedure, shortened: (§3)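 Pooled cryopreserved hepatocytes (male CD-1 mouse, or mixed-gender human donors; ≥10 each) at 0.7 million viable cells/mL in Krebs-Henseleit buffer pH 7.3, with 1 uM compound (≤0.01% DMSO). Incubated up to 2 h at 37 °C/5% CO2, quenched with acetonitrile; parent compound followed by HPLC-MS/MS peak area.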

[6] = Hepatocyte stability assay, human hepatocytes; assay type: in vitro ADME; details: for hepatocyte CLint at 1 uM: both sexes, human, cryopreserved hepatocytes, pH 7.3, 0.7 million cells per mL, 1 uM compound
Procedure, shortened: as §3

[7] = Example 7, spheroid, cell line HCT115 [sic], 20% O2, read-out: EC50 (pDNA-PK inhibition, immunohistochemical endpoint)
[8] = Example 8, spheroid, read-out: Cell line: HCT116 Immunohistochemical endpoint pDNA-PK inhibition EC50
[9] = Example 9 Study 2, 20% O2, read-out: Spheroid Cell line: HCT116 Immunohistochemical endpoint pDNA-PK inhibition EC50
[10] = Example 8, spheroid, read-out: Cell line: FaDU Immunohistochemical endpoint pDNA-PK inhibition EC50
[11] = Example 9 Study 2, 20% O2, read-out: Spheroid Cell line: FaDU Immunohistochemical endpoint pDNA-PK inhibition EC50
[12] = Example 8, spheroid, read-out: Cell line: HCT116 Colony forming endpoint Surviving Fraction EC50
[13] = Example 9 Study 2, read-out: Spheroid Cell line: HCT116 Colony forming endpoint Surviving Fraction EC50

Row | Compound | EC50 [1, 7] | EC50 [1, 8] | EC50 [1, 9] | EC50 [2, 10] | EC50 [2, 11] | EC50 (HCT116 spheroids; [12]) | EC50 (HCT116 spheroids; [13]) | Microsomal Stability (mouse) % rem. 60 min [3] | microsomal CLint at 0.1 uM [3] | Microsomal Stability (human) % rem. 60 min [4] | microsomal CLint at 0.1 uM [4] | Hepatocyte Stability (mouse) % rem. 120 min [5] | hepatocyte CLint at 1 uM [5] | Hepatocyte Stability (human) % rem. 120 min [6] | hepatocyte CLint at 1 uM [6]
1 | Cc1nc(C(F)(F)F)cn1[C@H]1CC[C@@H](Oc2nc(N3CCOCC3)cc3ncccc23)CC1 [Compound 17i, 4-(5-(((1s,4s)-4-(2-methyl-4-(trifluoromethyl)-1H-imidazol-1-yl)cyclohexyl)oxy)-1,6-naphthyridin-7-yl)morpholine] | 1000 to 10000 nM | 1000 to 10000 nM | 1000 to 10000 nM | 500 to 1000 nM | 500 to 1000 nM | 10 to 500 nM | 10 to 500 nM |  |  |  |  |  |  |  | 
2 | CCOCCOc1cnc(N[C@H]2CC[C@@H](Oc3nc(N4CCOCC4)cc4ncc(O)cc34)CC2)nc1 [Compound 19b, 5-(((1s,4s)-4-((5-(2-Ethoxyethoxy)pyrimidin-2-yl)amino)cyclohexyl)oxy)-7-morpholino-1,6-naphthyridin-3-ol] | 10 to 500 nM | 10 to 500 nM | 10 to 500 nM | 500 to 1000 nM | 500 to 1000 nM | 10 to 500 nM | 10 to 500 nM |  |  |  |  |  |  |  | 
3 | FC(F)Oc1cnc(N[C@H]2CC[C@@H](Oc3nc(N4CCOCC4)cc4ncccc34)CC2)nc1 [Compound 35, 5-(Difluoromethoxy)-N-((1s,4s)-4-((7-morpholino-1,6-naphthyridin-5-yl)oxy)cyclohexyl)pyrimidin-2-amine] | 1000 to 10000 nM | 1000 to 10000 nM | 1000 to 10000 nM |  |  | 1000 to 10000 nM | 1000 to 10000 nM | E (% remaining = 0-25%) | > 116 µL/min/mg |  |  |  |  |  | 
4 | O=C(N[C@H]1CC[C@@H](Oc2nc(N3CCOCC3)cc3ncccc23)CC1)c1ccc(C(F)(F)F)o1 [Compound 133, N-((1s,4s)-4-((7-Morpholino-1,6-naphthyridin-5-yl)oxy)cyclohexyl)-5-(trifluoromethyl)furan-2-carboxamide] | 1000 to 10000 nM | 1000 to 10000 nM | 1000 to 10000 nM |  |  | 1000 to 10000 nM | 1000 to 10000 nM | E (% remaining = 0-25%) | > 116 µL/min/mg |  |  |  |  |  | 
5 | O=C(N[C@H]1CC[C@@H](Oc2nc(N3CCOCC3)cc3ncccc23)CC1)c1cc[nH]c1 [Compound 140, N-((1s,4s)-4-((7-morpholino-1,6-naphthyridin-5-yl)oxy)cyclohexyl)-1H-pyrrole-3-carboxamide] | 10 to 500 nM |  | 10 to 500 nM |  |  |  |  | G (% remaining = 50-75%) | < 116 µL/min/mg | F (% remaining = 25-50%) | > 116 µL/min/mg | G (% remaining = 50-75%) | < 8.2 µL/min/1e6 cells | H (% remaining = 75-100%) | < 8.2 µL/min/1e6 cells
6 | O=C(N[C@H]1CC[C@@H](Oc2nc(N3CCOCC3)cc3ncccc23)CC1)c1ncco1 [Compound 142, N-((1s,4s)-4-((7-morpholino-1,6-naphthyridin-5-yl)oxy)cyclohexyl)oxazole-2-carboxamide] | 1000 to 10000 nM |  | 1000 to 10000 nM |  |  |  |  | G (% remaining = 50-75%) | < 116 µL/min/mg | F (% remaining = 25-50%) | > 116 µL/min/mg | F (% remaining = 25-50%) | > 8.2 µL/min/1e6 cells | H (% remaining = 75-100%) | < 8.2 µL/min/1e6 cells
7 | O=C(N[C@H]1CC[C@@H](Oc2nc(N3CCOCC3)cc3ncccc23)CC1)c1c[nH]cn1 [Compound 144, N-((1s,4s)-4-((7-morpholino-1,6-naphthyridin-5-yl)oxy)cyclohexyl)-1H-imidazole-4-carboxamide] | 1000 to 10000 nM |  | 1000 to 10000 nM |  |  |  |  | G (% remaining = 50-75%) | < 116 µL/min/mg | G (% remaining = 50-75%) | < 116 µL/min/mg | H (% remaining = 75-100%) | < 8.2 µL/min/1e6 cells | H (% remaining = 75-100%) | < 8.2 µL/min/1e6 cells
8 | CS(=O)(=O)Nc1cnc2cc(N3CCOCC3)nc(O[C@H]3CC[C@@H](n4ccnc4)CC3)c2c1 [Compound 161, N-(5-(((1s,4s)-4-(1H-imidazol-1-yl)cyclohexyl)oxy)-7-morpholino-1,6-naphthyridin-3-yl)methanesulfonamide] | 1000 to 10000 nM | 1000 to 10000 nM | 1000 to 10000 nM | 1000 to 10000 nM | 1000 to 10000 nM |  |  | F (% remaining = 25-50%) | < 116 µL/min/mg |  |  | G (% remaining = 50-75%) | < 8.2 µL/min/1e6 cells |  | 
9 | CS(=O)(=O)Nc1cnc2cc(N3CCOCC3)nc(O[C@H]3CC[C@@H](Nc4ncccn4)CC3)c2c1 [Compound 185, N-(7-morpholino-5-(((1s,4s)-4-(pyrimidin-2-ylamino)cyclohexyl)oxy)-1,6-naphthyridin-3-yl)methanesulfonamide] | 10 to 500 nM |  | 10 to 500 nM |  |  |  |  | G (% remaining = 50-75%) | < 116 µL/min/mg | F (% remaining = 25-50%) | > 116 µL/min/mg | G (% remaining = 50-75%) | < 8.2 µL/min/1e6 cells | H (% remaining = 75-100%) | < 8.2 µL/min/1e6 cells
